Consider five compounds from paper PMC7926793, “Synthesis and Biological Evaluation of 1-(Diarylmethyl)-1H-1,2,4-triazoles and 1-(Diarylmethyl)-1H-imidazoles as a Novel Class of Anti-Mitotic Agent for Activity in Breast Cancer” (Pharmaceuticals, 2021).

The test system of data set [1] is MCF-7 human breast cancer cells. Kind of data set: alamarBlue cell viability assay. The class given is cell-based. Conditions: Homo sapiens; for viability at 1 µM: read-out: cell viability (viable cells); for IC50: alamarBlue, read-out: Antiproliferative Activity MCF-7 Cells IC50. As for the experimental part: (§1) The human breast carcinoma cell line MCF-7 was purchased from the European Collection of Animal Cell Cultures (ECACC) and cultured in Eagles minimum essential medium with 10% foetal bovine serum, 2 mM L-glutamine, and 100 μg/mL penicillin/streptomycin. The medium was supplemented with 1% non-essential amino acids. The human breast carcinoma cell line MDA-MB-231 was purchased from the ECACC. MDA-MB-231 cells were maintained in Dulbecco’s modified Eagle’s medium (DMEM) supplemented with 10% (v/v) foetal bovine serum, 2 mM L-glutamine, and 100 μg/mL penicillin/streptomycin (complete medium). HL-60 cells were derived from a patient with acute myeloid leukaemia and were obtained from the ECACC (Salisbury, UK). Cells were cultured in RPMI-1640 Glutamax medium supplemented with 10% FCS media and 100 μg/mL penicillin/streptomycin. MCF-10A cells were obtained as a kind gift from Dr Susan McDonnell, School of Chemical and Bioprocess Engineering, University College Dublin and were cultured in Dulbecco’s Modified Eagle Medium: Nutrient Mixture F-12 (DMEM/F12; Gibco) supplemented with 5% horse serum (Invitrogen), 20 ng mL^−1 epidermal growth factor (Merck Millipore), 0.5 μg mL^−1 hydrocortisone (Sigma,-Aldrich, Arklow, Co. Wicklow, Ireland), 100 ng mL^−1 cholera toxin (Sigma, Aldrich, Arklow, Co. Wicklow, Ireland), 10 μg mL^−1 insulin (Sigma, Aldrich, Arklow, Co. Wicklow, Ireland), and penicillin/streptomycin 5000 U mL^−1 (1%)(Gibco, Biosciences, 3 Charlemont Terrace, Crofton Road, Dun Laoghaire, Co Dublin, A96 K7H7, Ireland). Cells were maintained at 37 °C in 5% CO2 in a humidified incubator. All cells were sub-cultured 3 times/week by trypsinisation using TrypLE Express (1×).
(§2) Cells were seeded at a density of 2.5 × 10^4 cells/well (MCF-7, MDA-MB-231, MCF-10A cells) and 1 × 10^4 cells/well (HL-60) in 96-well plates (200 μL per well). After 24 h, cells were then treated with either medium alone, vehicle control (1% ethanol (v/v)) or with serial dilutions of CA-4 (4a), phenstatin (7a) or selected compounds (0.001–100 μM) in triplicate. Cell proliferation for MCF-7, MDA-MB-231, and MCF-10A cells was analysed using the alamarBlue assay (Invitrogen Corp.) according to the manufacturer’s instructions. After 67–69 h, alamarBlue (10% (v/v)) was added to each well, and plates were incubated for 3–5 h at 37 °C in the dark. Fluorescence was read using a 96-well fluorimeter with excitation at 530 nm and emission at 590 nm. Results were expressed as percentage viability relative to vehicle control (100%).
On the technique in general: The colour change of resazurin is a common sign of viable cells or microbes.

Data set [2] concerns HL-60 leukaemia cells. Kind of data set: cell viability assay. It counts as cell-based. Conditions: Homo sapiens, read-out: Antiproliferative Activity HL-60 Cells IC50. As for the experimental part: as §1, with “Cells were maintained at 37 °C in 5% CO2 in a humidified incubator. All cells were sub-cultured 3 times/week by trypsinisation using TrypLE Express (1×).” left out
Cells were seeded at a density of 2.5 × 10^4 cells/well (MCF-7, MDA-MB-231, MCF-10A cells) and 1 × 10^4 cells/well (HL-60) in 96-well plates (200 μL per well). […] Cell proliferation for MCF-7, MDA-MB-231, and MCF-10A cells was analysed using the alamarBlue assay (Invitrogen Corp.) according to the manufacturer’s instructions. […] Fluorescence was read using a 96-well fluorimeter with excitation at 530 nm and emission at 590 nm. Results were expressed as percentage viability relative to vehicle control (100%).

Data set [3] concerns MDA-MB-231 human breast cancer cells. The experiment in a line: alamarBlue cell viability assay. Conditions: Homo sapiens, MDA-MB-231, 72 h, read-out: Antiproliferative Activity MDA-MB-231 Cells IC50. The class given is cell-based. How it is done:
as §1, §2

Data set [4] concerns tubulin (microtubule network) in MCF-7 cells. Kind of data set: immunofluorescence confocal microscopy of microtubule network. It counts as cell-based, human. Conditions: 1 μM, 16 h. How it is done:
Confocal microscopy was used to study the effects of drug treatment on MCF-7 cytoskeleton. For immunofluorescence, MCF-7 cells were seeded at 1 × 10^5 cells/mL on eight chamber glass slides (BD Biosciences). […] Following treatment, cells were gently washed in PBS, fixed for 20 min with 4% paraformaldehyde in PBS, and permeabilised in 0.5% Triton X-100. Following washes in PBS containing 0.1% Tween (PBST), cells were blocked in 5% bovine serum albumin diluted in PBST. […] Following washes in PBST, the cells were mounted in Ultra Cruz Mounting Media (Santa Cruz Biotechnology, Santa Cruz, CA) containing 4,6-diamino-2-phenolindol dihydrochloride (DAPI). Images were captured by Leica SP8 confocal microscopy with Leica application suite X software. All images in each experiment were collected on the same day using identical parameters. Experiments were performed on three independent occasions.

Data set [5] deals with purified bovine brain tubulin. Kind of data set: tubulin polymerisation assay. To be noted: 10 μM. It counts as biochemical. How it is done: The assembly of purified bovine tubulin was monitored using a kit, BK006, purchased from Cytoskeleton Inc. (Denver, CO, USA). […] Light is scattered proportionally to the concentration of polymerised microtubules in the assay. Therefore, tubulin assembly was monitored turbidimetrically at 340 nm in a Spectramax 340 PC spectrophotometer (Molecular Devices, Sunnyvale, CA, USA). The absorbance was measured at 30 s intervals for 60 min.

The test system of another data set is MDA-MB-231 cells. Kind of data set: Annexin V/PI apoptotic assay. The class given is cell-based, human. To be noted: for total apoptotic cells: 48 h. As for the experimental part: (§3) Apoptotic cell death was detected by flow cytometry using Annexin V and propidium iodide (PI). MCF-7 and MDA-MB-231 cells were seeded in 6-well plates at a density of 1 × 10^5 cells/mL (3 mL) and treated with either vehicle (0.1% (v/v) EtOH), Phenstatin (7a), or 21l at different concentrations for the selected time. Then, cells were harvested and prepared for flow cytometric analysis. […] Then, cells were washed once in binding buffer and then re-suspended in PI-containing binding buffer (1:1000). […] Four populations are produced during the assay: Annexin V and PI negative (Q4, healthy cells), Annexin V positive and PI negative (Q3, early apoptosis), Annexin V and PI positive (Q2, late apoptosis), and Annexin V negative and PI positive (Q1, necrosis).

In data set [6] the test system is MCF-7 cells. The experiment in a line: Annexin V/PI apoptotic assay. To be noted: for Annexin V-stained positive cells (total apoptotic cells): 48 h. The class given is cell-based, human. How it is done:
as §3

For data set [7], the system named is MDA-MB-231 human breast cancer cells. Further details: method as in PMID 25721862. To be noted: read-out: reported IC50 of phenstatin in MDA-MB-231 cells; cited from earlier work.
The subject of data set [8] is MCF-7 cells. Kind of data set: cell cycle analysis, PI staining, flow cytometry. The class given is cell-based, human. To be noted: 1 μM. How it is done:
The cells were collected by trypsinisation and centrifuged at 800× g for 15 min. Cells were washed twice with ice-cold phosphate-buffered saline (PBS) and fixed in ice-cold 70% ethanol overnight at −20 °C.
(Flow cytometry measures light scatter and fluorescence of single cells or particles in a stream.)

The test system of data set [9] is MCF-7 human breast cancer cells. Conditions: MCF-7 section; read-out: IC50 of phenstatin positive control; cited from earlier work.
For data set [10], the system named is HL-60 leukaemia cells. Further details: method as in PMID 19647439. Conditions: read-out: IC50 of phenstatin in HL-60; cited from earlier work.
The mark [11] stands for this setting: Homo sapiens, MDA-MB-231, 48 h, read-out: Viable.
[12] abbreviates: Homo sapiens, MCF7, 48 h, read-out: Viable.

Read-outs that look alike come from different tables or passages of the source.

For orientation: melting point means the temperature of the solid-liquid transition. `Nc1ccc(C(c2ccccc2)n2cncn2)cc1` (stereo not drawn) [13m, 4-(Phenyl(1H-1,2,4-Triazol-1-yl)Methyl)Aniline] gave a melting point of 149 to 151 °C. Moreover, in data set [1] (MCF7, 1 μM, 72 h), the viability at 1 µM was 72%.

Broadly, the IC50 is the concentration needed to halve the response being measured. Take `COc1ccc(C(c2ccc(C#N)cc2)n2cncn2)cc1O` (stereo not drawn) [19h, 4-((3-Hydroxy-4-Methoxyphenyl)(1H-1,2,4-Triazol-1-yl)Methyl)Benzonitrile]: the melting point fell in the range of 168 to 170 °C. In addition, in data set [1] (MCF7, 72 h, 72 h), the half-maximal inhibitory concentration (IC50) was over 100000 nM.

On to `COc1ccc(/C=C\c2cc(OC)c(OC)c(OC)c2)cc1O` [CA-4, reference compound], for which the IC50 with HL-60 leukaemia cells [2] was determined as 1.9 ± 0.5 nM; in [3] it was 43 nM; in [1] (MCF7, 72 h, 72 h) it was 3.9 ± 0.32 nM. Also, in data set [1] (MCF7, 1 μM, 72 h), the viability at 1 µM came to 24%.

`CC(=O)O[C@H]1C(=O)[C@@]2(C)[C@H]([C@H](OC(=O)c3ccccc3)[C@]3(O)C[C@H](OC(=O)[C@H](O)[C@@H](NC(=O)c4ccccc4)c4ccccc4)C(C)=C1C3(C)C)[C@]1(OC(C)=O)CO[C@@H]1C[C@@H]2O` [paclitaxel, reference compound]: in data set [4], the “effect on microtubule network of MCF-7 cells” value is given as “Hyperpolymerisation of tubulin”.

Consider `COc1ccc(C(=O)c2cc(OC)c(OC)c(OC)c2)cc1O` [phenstatin, (3-Hydroxy-4-Methoxyphenyl)(3,4,5-Trimethoxyphenyl)Methanone, reference compound], for which, in data set [5], the “effect on tubulin polymerisation and assembly” value is reported as “significant inhibition of tubulin polymerisation”. Moreover, the results for the viability at 0.1 µM in the data set on MDA-MB-231 cells (setting [11]) and in the data set on MCF-7 cells [6] (setting [12]) were 80.4% and 58.4%, respectively. The results for the viability at 0.5 µM in the data set with MDA-MB-231 cells (setting [11]) and in the data set with MCF-7 cells [6] (setting [12]) were 80.6% and 50.7%, respectively. For the same compound, the total apoptotic cells in the data set with MDA-MB-231 cells (MDA-MB-231, 0.1 μM) is listed as 16.6%; in the data set on MDA-MB-231 cells (MDA-MB-231, 0.5 μM), 17.9%. Moreover, the “Annexin V-stained positive cells (total apoptotic cells)” value in the data set with MCF-7 cells [6] (MCF-7, 0.1 μM) was determined as 36.1%; with MCF-7 cells [6] (MCF-7, 0.5 μM) it was 46%. Moreover, the results for the IC50 (in data set [7]; in data set [9]; in the data set with HL-60 leukaemia cells [10]) were 1500 nM, 1.61 ± 2.7 nM and 31 nM, respectively. Also, the “cells in the G2/M phase” value in the data set with MCF-7 cells [8] (24 h) is on record as 65%; in the data set with MCF-7 cells [8] (48 h), 49%; with MCF-7 cells [8] (72 h) it was 51%. Moreover, the “cells undergoing apoptosis (sub-G1)” value in the data set with MCF-7 cells [8] (72 h) was 18%. Moreover, the “effect on microtubule network of MCF-7 cells” value in data set [4] is recorded as “extensive depolymerisation of tubulin”. Besides, the viability at 1 µM in [1] (MCF7, 72 h) was determined as 30%.
